From ChEMBL document CHEMBL3611999, “Bifunctional compounds targeting both D2 and non-α7 nACh receptors: design, synthesis and pharmacological characterization” (Eur J Med Chem, 2015)
The source made the active and inactive calls. The calls are words filed in the database; no cut-off is given here.

How the values were obtained:
[1] = target: Neuronal acetylcholine receptor; alpha4/beta2 (Rattus norvegicus, UniProt P09483+P12390); experiment: Displacement of [3H]epibatidine from immunoimmobilized alpha4beta2 nAChR in Sprague-Dawley rat striatal membranes by liquid scintillation counting; parameters: species or system Sprangue-Dawley, Striatum, Membrane
[2] = target: Neuronal acetylcholine receptor subunit alpha-7 (Rattus norvegicus, UniProt Q05941); experiment: Displacement of [125I]alpha-bungarotoxin from alpha7 nAChR in Sprague-Dawley rat hippocampus membrane homogenates by gamma counting; parameters: species or system Sprangue-Dawley
[3] = target: T1, Neuronal acetylcholine receptor; alpha4/beta2 (Homo sapiens, UniProt P17787+P43681); experiment: Binding affinity to alpha4beta2 nAChR (unknown origin); assay type: protein-complex assay
Rattus norvegicus [4] = species: Rattus norvegicus; experiment: Agonist activity at nAChR in Sprague-Dawley rat striatal slices assessed as induction of [3H]-dopamine release at 25 uM; settings: Sprangue-Dawley
[5] = target: T1, Neuronal acetylcholine receptor; alpha4/beta2; experiment: Partial agonist activity at human alpha4beta2 nAChR expressed in HEK293 cells assessed as inward current at holding potential of -70 mV by patch clamp technique relative to acetylcholine; assay type: cell-based; parameters: concentration or dose not given beside the values
[6] = Antagonist activity at nAChR in Sprague-Dawley rat striatal slices assessed as inhibition of nicotine-induced [3H]-dopamine release; settings: Sprangue-Dawley
Rattus norvegicus [7] = species: Rattus norvegicus; experiment: Agonist activity at nAChR in Sprague-Dawley rat striatal slices assessed as induction of [3H]-dopamine release; settings: Sprangue-Dawley
[8] = target: T1, Neuronal acetylcholine receptor; alpha4/beta2; experiment: Antagonist activity at human alpha4beta2 nAChR expressed in HEK293 cells assessed as inhibition of acetylcholine-induced inward current at holding potential of -70 mV by patch clamp technique; assay type: cell-based
[9] = target: T1, Neuronal acetylcholine receptor; alpha4/beta2; experiment: Agonist activity at alpha4beta2 nAChR (unknown origin) expressed in HEK293 cells assessed as increase of ERK1/2 phosphorylation at 10 uM after 5 mins by Western blotting; assay type: cell-based
Rattus norvegicus [10] = species: Rattus norvegicus; experiment: Antagonist activity at nAChR in Sprague-Dawley rat striatal slices assessed as inhibition of nicotine-induced [3H]-dopamine release at 10 uM; settings: Sprangue-Dawley
[11] = target: Mitogen-activated protein kinase; ERK1/ERK2 (Homo sapiens) (UniProt P27361+P28482); experiment: Induction of ERK1/2 phosphorylation in human HEK293 cells at 10 uM after 5 mins by Western blotting; assay type: cell-based
[12] = target: Neuronal acetylcholine receptor; alpha4/beta2 (Rattus norvegicus) (UniProt P09483+P12390); experiment: Ratio of NHNB Ki to compound Ki for immunoimmobilized alpha4beta2 nAChR in Sprague-Dawley rat striatal membranes; settings: Sprangue-Dawley
D(2) dopamine receptor = D(2) dopamine receptor (Rattus norvegicus, UniProt P61169); experiment: Displacement of [3H]raclopride from dopamine D2 receptor in Sprague-Dawley rat striatal membranes after 30 mins; parameters: species or system Sprangue-Dawley, Striatum, Membrane
[13] = target: Neuronal acetylcholine receptor subunit alpha-6/beta-3 (Rattus norvegicus) (UniProt P12391+P43143); experiment: Ratio of NHNB Ki to compound Ki for immunoimmobilized alpha6beta2 nAChR in Sprague-Dawley rat striatal membranes; settings: Sprangue-Dawley
[14] = target: T1, Neuronal acetylcholine receptor; alpha4/beta2; experiment: Antagonist activity at alpha4beta2 nAChR (unknown origin) expressed in HEK293 cells assessed as reduction of nicotine-induced ERK1/2 phosphorylation at 10 uM treated 30 mins before nicotine addition by Western blotting; assay type: cell-based
D(3) dopamine receptor = D(3) dopamine receptor (Homo sapiens, UniProt P35462); experiment: Displacement of [3H]raclopride from dopamine D3 receptor (unknown origin) expressed in HEK293 cells after 30 mins; assay type: cell-based
[15] = target: D(2) dopamine receptor (Homo sapiens) (UniProt P14416); experiment: Partial agonist activity at dopamine D2 receptor (unknown origin) expressed in HEK293 cells assessed as reduction of quinpirole-induced ERK1/2 phosphorylation at 10 uM treated 30 mins before quinpirole addition by Western blotting; assay type: cell-based; parameters: scale not given: the % may be the effect or the level left
Rattus norvegicus [16] = species: Rattus norvegicus; experiment: Agonist activity at nAChR in Sprague-Dawley rat striatal slices assessed as induction of [3H]-dopamine release at 10 uM; settings: Sprangue-Dawley
Rattus norvegicus [17] = species: Rattus norvegicus; experiment: Antagonist activity at nAChR in Sprague-Dawley rat striatal slices assessed as inhibition of nicotine-induced [3H]-dopamine release at 5 uM; settings: Sprangue-Dawley

T1 sequence (P17787 whole entry): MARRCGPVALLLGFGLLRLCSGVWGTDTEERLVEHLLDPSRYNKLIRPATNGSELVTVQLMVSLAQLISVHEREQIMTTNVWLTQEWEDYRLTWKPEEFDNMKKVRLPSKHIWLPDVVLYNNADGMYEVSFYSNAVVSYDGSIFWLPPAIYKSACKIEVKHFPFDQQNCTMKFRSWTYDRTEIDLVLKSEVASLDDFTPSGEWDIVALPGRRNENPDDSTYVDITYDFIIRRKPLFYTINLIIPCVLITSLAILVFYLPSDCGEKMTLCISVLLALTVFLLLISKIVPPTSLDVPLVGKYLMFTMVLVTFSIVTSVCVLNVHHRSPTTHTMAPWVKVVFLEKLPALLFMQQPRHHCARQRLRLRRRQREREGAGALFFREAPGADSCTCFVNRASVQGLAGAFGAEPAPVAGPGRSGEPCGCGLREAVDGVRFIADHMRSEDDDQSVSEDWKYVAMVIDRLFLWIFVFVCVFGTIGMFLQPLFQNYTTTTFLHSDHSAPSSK
T1 sequence (P43681 whole entry): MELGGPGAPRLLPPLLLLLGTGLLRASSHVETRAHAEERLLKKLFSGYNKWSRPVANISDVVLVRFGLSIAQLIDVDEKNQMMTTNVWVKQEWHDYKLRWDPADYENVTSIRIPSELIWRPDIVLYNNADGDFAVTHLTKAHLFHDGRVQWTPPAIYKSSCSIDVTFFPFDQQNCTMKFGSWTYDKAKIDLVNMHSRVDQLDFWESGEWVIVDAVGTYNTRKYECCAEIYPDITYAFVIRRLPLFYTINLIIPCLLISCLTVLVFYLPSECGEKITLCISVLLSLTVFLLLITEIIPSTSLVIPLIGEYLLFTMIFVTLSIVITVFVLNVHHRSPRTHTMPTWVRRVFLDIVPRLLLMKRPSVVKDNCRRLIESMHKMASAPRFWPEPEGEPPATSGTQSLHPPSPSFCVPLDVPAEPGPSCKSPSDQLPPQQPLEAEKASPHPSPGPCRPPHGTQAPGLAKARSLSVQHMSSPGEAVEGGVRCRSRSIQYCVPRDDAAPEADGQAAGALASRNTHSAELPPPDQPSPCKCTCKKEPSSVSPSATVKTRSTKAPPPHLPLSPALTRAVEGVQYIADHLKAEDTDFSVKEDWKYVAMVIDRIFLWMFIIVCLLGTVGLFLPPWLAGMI
Chain of D(2) dopamine receptor (P61169 whole entry): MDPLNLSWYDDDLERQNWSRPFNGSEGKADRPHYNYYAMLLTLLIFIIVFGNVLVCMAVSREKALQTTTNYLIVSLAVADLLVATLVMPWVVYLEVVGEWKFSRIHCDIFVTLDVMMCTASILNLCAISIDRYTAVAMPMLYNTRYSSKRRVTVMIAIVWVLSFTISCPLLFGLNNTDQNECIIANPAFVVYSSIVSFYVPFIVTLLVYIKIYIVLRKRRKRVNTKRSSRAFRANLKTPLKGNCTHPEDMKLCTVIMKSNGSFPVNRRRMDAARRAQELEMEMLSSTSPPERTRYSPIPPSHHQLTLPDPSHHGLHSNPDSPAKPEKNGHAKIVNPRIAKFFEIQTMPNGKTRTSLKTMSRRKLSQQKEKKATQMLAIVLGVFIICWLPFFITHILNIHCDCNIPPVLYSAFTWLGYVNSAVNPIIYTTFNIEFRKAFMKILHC
Chain of Neuronal acetylcholine receptor subunit alpha-7 (Q05941 whole entry): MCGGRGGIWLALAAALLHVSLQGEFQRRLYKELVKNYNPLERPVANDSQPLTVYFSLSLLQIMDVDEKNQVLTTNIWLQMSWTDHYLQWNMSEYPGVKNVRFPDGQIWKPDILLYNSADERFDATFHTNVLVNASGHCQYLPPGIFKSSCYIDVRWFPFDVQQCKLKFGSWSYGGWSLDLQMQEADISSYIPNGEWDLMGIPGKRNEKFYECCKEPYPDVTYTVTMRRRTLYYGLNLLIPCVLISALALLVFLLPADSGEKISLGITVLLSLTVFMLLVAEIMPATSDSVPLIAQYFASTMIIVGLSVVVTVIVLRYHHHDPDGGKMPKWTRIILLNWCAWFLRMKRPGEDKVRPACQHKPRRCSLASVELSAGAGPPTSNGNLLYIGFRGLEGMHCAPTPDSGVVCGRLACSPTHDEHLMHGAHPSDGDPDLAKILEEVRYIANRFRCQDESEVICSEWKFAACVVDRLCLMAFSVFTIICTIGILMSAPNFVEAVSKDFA
Chain of Neuronal acetylcholine receptor; alpha4/beta2 (Rattus norvegicus, UniProt P09483+P12390) (P09483 whole entry): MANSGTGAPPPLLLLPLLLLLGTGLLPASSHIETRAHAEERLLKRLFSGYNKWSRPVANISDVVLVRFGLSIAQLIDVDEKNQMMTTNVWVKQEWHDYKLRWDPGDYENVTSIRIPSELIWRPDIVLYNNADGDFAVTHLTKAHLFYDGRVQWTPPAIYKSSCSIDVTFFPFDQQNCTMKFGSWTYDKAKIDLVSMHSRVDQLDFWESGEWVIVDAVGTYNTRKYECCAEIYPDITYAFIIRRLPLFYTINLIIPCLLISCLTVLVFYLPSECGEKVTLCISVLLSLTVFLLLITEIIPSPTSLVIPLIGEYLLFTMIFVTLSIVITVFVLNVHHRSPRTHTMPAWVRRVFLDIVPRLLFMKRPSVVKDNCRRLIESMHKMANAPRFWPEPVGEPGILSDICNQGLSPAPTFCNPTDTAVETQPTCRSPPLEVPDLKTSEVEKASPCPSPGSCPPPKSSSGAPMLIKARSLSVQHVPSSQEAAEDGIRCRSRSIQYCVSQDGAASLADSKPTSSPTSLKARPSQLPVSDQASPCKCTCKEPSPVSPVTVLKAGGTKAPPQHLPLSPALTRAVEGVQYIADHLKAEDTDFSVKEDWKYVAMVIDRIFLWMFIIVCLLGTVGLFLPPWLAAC
Chain of Neuronal acetylcholine receptor; alpha4/beta2 (Rattus norvegicus, UniProt P09483+P12390) (P12390 whole entry): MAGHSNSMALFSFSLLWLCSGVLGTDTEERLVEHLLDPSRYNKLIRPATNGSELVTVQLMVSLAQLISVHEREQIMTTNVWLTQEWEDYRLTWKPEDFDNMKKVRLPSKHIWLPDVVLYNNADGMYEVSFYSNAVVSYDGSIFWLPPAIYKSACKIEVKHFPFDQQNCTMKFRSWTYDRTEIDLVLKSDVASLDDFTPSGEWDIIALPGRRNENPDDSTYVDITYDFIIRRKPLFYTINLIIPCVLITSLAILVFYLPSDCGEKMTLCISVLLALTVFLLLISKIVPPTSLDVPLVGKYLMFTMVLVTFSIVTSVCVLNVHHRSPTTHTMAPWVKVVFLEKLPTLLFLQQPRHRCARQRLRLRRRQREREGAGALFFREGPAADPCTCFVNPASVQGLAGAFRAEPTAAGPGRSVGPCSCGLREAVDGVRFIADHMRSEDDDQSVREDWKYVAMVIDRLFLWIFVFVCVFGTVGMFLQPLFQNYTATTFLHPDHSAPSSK
Chain of Mitogen-activated protein kinase; ERK1/ERK2 (Homo sapiens) (P27361 whole entry, looked up): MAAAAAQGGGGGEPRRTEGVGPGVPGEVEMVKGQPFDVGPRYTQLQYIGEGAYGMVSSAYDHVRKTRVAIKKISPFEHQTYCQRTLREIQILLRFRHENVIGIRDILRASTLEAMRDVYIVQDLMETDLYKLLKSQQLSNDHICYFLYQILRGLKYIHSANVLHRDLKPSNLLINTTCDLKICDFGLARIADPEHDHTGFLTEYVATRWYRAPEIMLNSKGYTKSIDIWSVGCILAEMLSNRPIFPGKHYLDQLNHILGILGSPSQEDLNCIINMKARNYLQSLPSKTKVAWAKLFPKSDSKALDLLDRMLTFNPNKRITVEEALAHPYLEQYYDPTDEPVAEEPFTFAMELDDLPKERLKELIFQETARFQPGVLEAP
Chain of Mitogen-activated protein kinase; ERK1/ERK2 (Homo sapiens) (P28482 whole entry, looked up): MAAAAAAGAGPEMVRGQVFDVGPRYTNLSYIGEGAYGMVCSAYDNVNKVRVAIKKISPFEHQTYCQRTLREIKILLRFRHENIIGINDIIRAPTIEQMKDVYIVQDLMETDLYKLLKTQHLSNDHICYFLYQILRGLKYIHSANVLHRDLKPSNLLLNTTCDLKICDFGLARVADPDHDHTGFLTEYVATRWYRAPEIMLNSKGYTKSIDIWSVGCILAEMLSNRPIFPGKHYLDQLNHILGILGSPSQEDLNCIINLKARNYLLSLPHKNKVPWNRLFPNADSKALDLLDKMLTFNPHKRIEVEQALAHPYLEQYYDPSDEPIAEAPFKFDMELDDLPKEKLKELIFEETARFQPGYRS
Chain of D(3) dopamine receptor (P35462 whole entry): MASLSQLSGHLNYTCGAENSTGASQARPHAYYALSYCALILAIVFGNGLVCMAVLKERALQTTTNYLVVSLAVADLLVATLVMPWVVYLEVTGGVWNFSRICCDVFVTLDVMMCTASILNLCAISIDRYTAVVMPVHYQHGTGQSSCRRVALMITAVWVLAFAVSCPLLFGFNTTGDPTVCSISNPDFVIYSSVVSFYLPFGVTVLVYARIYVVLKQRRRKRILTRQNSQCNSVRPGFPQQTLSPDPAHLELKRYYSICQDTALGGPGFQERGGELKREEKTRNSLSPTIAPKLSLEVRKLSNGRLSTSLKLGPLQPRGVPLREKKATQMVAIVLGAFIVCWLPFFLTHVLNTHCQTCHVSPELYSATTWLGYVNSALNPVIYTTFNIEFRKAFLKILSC
Chain of D(2) dopamine receptor (Homo sapiens) (P14416 whole entry): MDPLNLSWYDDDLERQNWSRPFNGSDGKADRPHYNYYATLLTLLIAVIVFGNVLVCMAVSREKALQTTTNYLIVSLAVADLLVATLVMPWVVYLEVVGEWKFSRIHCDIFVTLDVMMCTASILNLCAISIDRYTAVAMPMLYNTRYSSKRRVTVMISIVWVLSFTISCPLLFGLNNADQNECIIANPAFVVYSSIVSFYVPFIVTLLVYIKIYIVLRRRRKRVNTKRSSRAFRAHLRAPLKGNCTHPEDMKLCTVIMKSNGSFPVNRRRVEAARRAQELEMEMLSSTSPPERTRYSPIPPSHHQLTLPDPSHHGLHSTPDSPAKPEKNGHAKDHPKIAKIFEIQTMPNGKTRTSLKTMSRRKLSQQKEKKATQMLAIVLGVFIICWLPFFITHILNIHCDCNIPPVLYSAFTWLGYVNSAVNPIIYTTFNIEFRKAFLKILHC

Row | Compound | Ki [1] [nM] | Ki [2] [nM] | Activity [5] [%] | IC50 [6] [nM] | Activity (Rattus norvegicus [7]) | IC50 [8] [nM] | Activity [9] | Activity [11] | Ki (D(2) dopamine receptor) [nM] | inhibition [14] [%] | Ki (D(3) dopamine receptor) [nM] | further results
1 | CCCCCCCCCCCC[n+]1cccc([C@@H]2CCCN2C)c1 | 1410 | 83000 | 9 | 500 | – | – | – | – | – | – | – | Ki [3]: 0.14 nM; Activity (Rattus norvegicus [4]): Active
2 | CNC1(C)C2CCC(C2)C1(C)C (stereo not given) [MECAMYLAMINE] | – | – | – | 300 | – | – | – | – | – | – | – | –
3 | CCCCCCNCC1CCc2ccc(O)cc2O1 (stereo not given) | > 100000 | > 100000 | – | – | – | – | – | – | – | – | – | –
4 | CCCCCC[n+]1cccc([C@@H]2CCCN2C)c1 | 4710 | > 100000 | 18 | 8900 | inactive | 300 | – | – | – | – | – | –
5 | CN1CCC[C@H]1c1cccnc1 | – | – | – | – | – | – | Active | – | – | – | – | –
6 | CCCCCCCCCC[n+]1cccc([C@@H]2CCCN2C)c1 | 8690 | 84000 | 1.3 | – | Active | 200 | – | – | – | – | – | inhibition (Rattus norvegicus [10]): inactive; Ki [3]: 0.09 nM
7 | CN1CCC[C@H]1c1ccc[n+](CCCCCNCC2CCc3ccc(O)cc3O2)c1 (mixture of isomers) | 2270 | 11000 | 13 | 2300 | inactive | 200 | inactive | inactive | 120 | 55 | 43 | Ratio Ki [12]: 43; Ratio Ki [13]: 30
8 | CN1CCC[C@H]1c1ccc[n+](CCCCCCCCCCNCC2CCc3ccc(O)cc3O2)c1 (mixture of isomers) | 1060 | 43000 | 4 | 10400 | – | 100 | inactive | inactive | 14 | 57 | 3.3 | Ratio Ki [12]: 43; Ratio Ki [13]: 30
9 | CN1CCC[C@H]1c1ccc[n+](CCCCCCNCC2CCc3ccc(O)cc3O2)c1 (mixture of isomers) | 109 | 13000 | 15 | 6900 | inactive | 800 | inactive | inactive | 97 | 65 | 15.7 | Activity [15]: 40%
10 | CCCCC[n+]1cccc([C@@H]2CCCN2C)c1 | 3940 | > 100000 | 27 | 15300 | – | 90 | – | – | – | – | – | –
11 | CO[C@H]1CC=C2CCN3CCC4=C(CC(=O)OC4)[C@]23C1 | – | – | – | 2200 | – | – | – | – | – | – | – | –
12 | CN1CCC[C@H]1c1ccc[n+](CCCCCCCCCCCCNCC2CCc3ccc(O)cc3O2)c1 (mixture of isomers) | 2750 | 65000 | 8.3 | – | – | – | inactive | inactive | 20 | 57 | 9.9 | Activity (Rattus norvegicus [16]): Active; Ratio Ki [12]: 43; Ratio Ki [13]: 30; inhibition (Rattus norvegicus [17]): 10%
13 | CCCNCC1CCc2ccc(O)cc2O1 (stereo not given) | > 100000 | > 100000 | – | – | – | – | – | – | – | – | – | –
